# Data as given in US12344610B2, “APOL1 inhibitors and methods of use” (Maze Therapeutics, Inc., priority 2022, dated 2025).
# Biological target: T1, APOL1 G2 (Homo sapiens, UniProt O14791, DEL388-389)
# T1 construct: expressed in transfected cells; host or cells: HEK293 T-REx clonal line stably expressing GCaMP6f (HEK T-REx/GCaMP6f/APOL1 G2 K6.3), doxycycline induced
# T1 sequence (O14791 with tags, fused parts or gaps DEL388-389): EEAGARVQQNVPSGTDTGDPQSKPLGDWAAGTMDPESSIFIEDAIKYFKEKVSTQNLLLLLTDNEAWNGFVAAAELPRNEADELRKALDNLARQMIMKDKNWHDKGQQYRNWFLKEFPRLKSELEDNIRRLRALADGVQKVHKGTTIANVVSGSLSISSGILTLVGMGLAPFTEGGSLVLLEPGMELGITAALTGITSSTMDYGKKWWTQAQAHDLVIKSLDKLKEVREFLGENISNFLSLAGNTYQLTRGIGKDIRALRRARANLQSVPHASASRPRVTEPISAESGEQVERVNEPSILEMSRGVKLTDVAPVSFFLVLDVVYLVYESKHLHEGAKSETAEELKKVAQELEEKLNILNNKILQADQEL
# Experiment: APOL1-mediated calcium transport (calcium influx) assay, HEK T-REx/GCaMP6f/APOL1 G2 K6.3 cells, FLIPR TETRA
# Type: cell-based
# Details: prevention of calcium influx; geometric mean of at least 2 assay runs; † = average of a technical replicate from a single assay run
# Summary of the method: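 A HEK293 T-REx clone stably expressing GCaMP6f had APOL1 G2 induced with doxycycline (20 ng/mL solution added) for 6 h. Cells were then washed into Ca2+-free Tyrode's buffer (pH 7.4) and preincubated with compounds (duplicate 8-point) for 10 min at room temperature. Ca2+ injection to 5 mM final produced FLIPR GCaMP fluorescence, giving AC50 for influx inhibition (geometric mean, ≥2 runs).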
row,SMILES,AC50 [nM]
1,"CC(c1ccc(OCCN2CCC3(CC2)C(=O)Nc2ccc(Cl)cc23)cc1)S(C)(=O)=O (single isomer, unassigned) [Compound 39, 5-chloro-1′-(2-{4-[(1S) or (1R)-1-methanesulfonylethyl]phenoxy}ethyl)-1,2-dihydrospiro[indole-3,4′-piperidin]-2-one]",745
2,"O=C1CCc2cc(OCCN3CCC4(CC3)C(=O)Nc3ccc(Cl)cc34)cnc2N1[C@H]1C[C@@H](CO)C1 (single isomer, unassigned) [Compound 319, 5-chloro-1′-[2-({7-oxo-8-[(cis)-3-(hydroxymethyl)cyclobutyl]-5,6,7,8-tetrahydro-1,8-naphthyridin-3-yl}oxy)ethyl]-1,2-dihydrospiro[indole-3,4′-piperidin]-2-one]",378
3,"CC[C@]1(O)C[C@@H](N2C(=O)CCc3cc(OCCN4CCC5(CC4)C(=O)Nc4ccc(Cl)cc45)cnc32)C1 (single isomer, unassigned) [Compound 321, 5-chloro-1′-[2-({7-oxo-8-[(cis)-3-ethyl-3-hydroxycyclobutyl]-5,6,7,8-tetrahydro-1,8-naphthyridin-3-yl}oxy)ethyl]-1,2-dihydrospiro[indole-3,4′-piperidin]-2-one]",621
4,"CC1(O)CC(CN2C(=O)CCc3cc(OCCN4CCC5(CC4)C(=O)Nc4ccc(Cl)cc45)cnc32)C1 (single isomer, unassigned) [Compound 322, 5-chloro-1′-{2-[(7-oxo-8-{[(trans) or (cis)-3-hydroxy-3-methylcyclobutyl]methyl}-5,6,7,8-tetrahydro-1,8-naphthyridin-3-yl)oxy]ethyl}-1,2-dihydrospiro[indole-3,4′-piperidin]-2-one]",588
5,"C[C@]1(O)C[C@@H](n2ncc3cc(OCCN4CCC5(CC4)C(=O)Nc4ccc(Cl)cc45)cnc32)C1 (single isomer, unassigned) [Compound 357, 5-chloro-1′-[2-({1-[(cis)-3-hydroxy-3-methylcyclobutyl]-1H-pyrazolo[3,4-b]pyridin-5-yl}oxy)ethyl]-1,2-dihydrospiro[indole-3,4′-piperidin]-2-one]",412
6,"CC1(O)CC(c2ncc(OCCN3CCC4(CC3)C(=O)Nc3ccc(Cl)cc34)cn2)C1 (single isomer, unassigned) [Compound 393, 5-chloro-1′-[2-({2-[(cis) or (trans)-3-hydroxy-3-methylcyclobutyl]pyrimidin-5-yl}oxy)ethyl]-1,2-dihydrospiro[indole-3,4′-piperidin]-2-one]",1060
7,"C[C@]1(O)C[C@H](n2ncc3cc(OCCN4CCC5(CC4)C(=O)Nc4ccc(Cl)cc45)cnc32)C1 (single isomer, unassigned) [Compound 408, 5-chloro-1′-[2-({1-[(trans)-3-hydroxy-3-methylcyclobutyl]-1H-pyrazolo[3,4-b]pyridin-5-yl}oxy)ethyl]-1,2-dihydrospiro[indole-3,4′-piperidin]-2-one]",283
8,"C[C@]1(O)C[C@@H](N2C(=O)CCc3cc(OCCN4CCC5(CC4)C(=O)Nc4ccc(OC(F)F)cc45)cnc32)C1 [Cmpd 325, 5-(difluoromethoxy)-1′-[2-({7-oxo-8-[(cis)-3-hydroxy-3-methylcyclobutyl]-5,6,7,8-tetrahydro-1,8-naphthyridin-3-yl}oxy)ethyl]-1,2-dihydrospiro[indole-3,4′-piperidin]-2-one]",791
9,"CC(c1ncc(OCCN2CCC3(CC2)C(=O)Nc2ccc(Cl)cc23)cn1)S(C)(=O)=O (stereo not shown) [Compound 1, 5-Chloro-1′-(2-{[2-(1-methanesulfonylethyl)pyrimidin-5-yl]oxy}ethyl)-1,2-dihydrospiro[indole-3,4′-piperidin]-2-one]",703
10,"CS(=O)(=O)C1(c2ncc(OCCN3CCC4(CC3)C(=O)Nc3ccc(Cl)cc34)cn2)CC1 [Compound 4, 5-chloro-1′-(2-{[2-(1-methanesulfonylcyclopropyl)pyrimidin-5-yl]oxy}ethyl)-1,2-dihydrospiro[indole-3,4′-piperidin]-2-one]",670
